From paper PMC8286840, “Identifying SARS-CoV-2 antiviral compounds by screening for small molecule inhibitors of Nsp3 papain-like protease” (Biochemical Journal, 2021)
Where a name gives a salt, the structure may show the parent alone. Read-outs that look alike come from different tables or passages of the source.

Tests used:
[1] = molecular target: T1, SARS-CoV-2 PLpro (nsp3 1564–1878) (Severe acute respiratory syndrome coronavirus 2, UniProt P0DTD1); experiment: biochemical; parameters: FRET-quenched peptide (Pro3) cleavage by PLpro, 10 min pre-incubation, slope over 20 min, normalised to no-compound control; conditions: low concentration screen, read-out: % of control remaining
[2] = molecular target: T1, SARS-CoV-2 PLpro (nsp3 1564–1878); experiment: biochemical; parameters: FRET-quenched peptide (Pro3) cleavage by PLpro, 10 min pre-incubation, slope over 20 min, normalised to no-compound control; conditions: high concentration screen, read-out: % of control remaining

## N#C/C(=C\c1ccc(O)c(O)c1)C(=O)NCc1ccccc1 [AG 490]
[1]; Well no.=2607
  remaining activity at 1.25 µM: 95.5%
[2]; Well no.=2607
  remaining activity at 3.75 µM: 97%

## CC(=O)O[C@H]1C(=O)[C@@]2(C)[C@H]([C@H](OC(=O)c3ccccc3)[C@]3(O)C[C@H](O)C(C)=C1C3(C)C)[C@]1(OC(C)=O)CO[C@@H]1C[C@@H]2O [Baccatin III]
[1]; Well no.=3099
  remaining activity at 1.25 µM: 97.9%
[2]; Well no.=3099
  remaining activity at 3.75 µM: 99.5%

## CC[C@@]1(O)C[C@H](O[C@H]2C[C@H](N(C)C)[C@H](O[C@H]3C[C@H](O)[C@H](O[C@H]4CCC(=O)[C@H](C)O4)[C@H](C)O3)[C@H](C)O2)c2c(cc3c(c2O)C(=O)c2c(O)cccc2C3=O)[C@H]1C(=O)OC [Aclarubicin]
[1]; Well no.=1573
  remaining activity at 1.25 µM: 101%
[2]; Well no.=1573
  remaining activity at 3.75 µM: 96.4%

## C=CC(=O)Nc1cccc(Oc2nc(Nc3ccc(N4CCN(C)CC4)cc3OC)ncc2Cl)c1 [WZ4002]
[1]; Well no.=4713
  remaining activity at 1.25 µM: 107%
[2]; Well no.=4713
  remaining activity at 3.75 µM: 106%

## CC(NC(=O)c1ccccc1/N=C/c1c(O)ccc2ccccc12)c1ccccc1 (stereo not shown) [Sirtinol]
[1]; Well no.=4783
  remaining activity at 1.25 µM: 103%
[2]; Well no.=4783
  remaining activity at 3.75 µM: 99.9%

## CNC(=O)c1cccc(-c2ccc3c(N4CCOC[C@@H]4C)nc(N4CCOC[C@@H]4C)nc3n2)c1 [AZD2014]
[1]; Well no.=5115
  remaining activity at 1.25 µM: 106%
[2]; Well no.=5115
  remaining activity at 3.75 µM: 107%

## C[N@+]1(CC2CC2)CC[C@]23c4c5ccc(O)c4O[C@H]2C(=O)CC[C@@]3(O)[C@H]1C5 [Methylnaltrexone (Bromide)]
[1]; Well no.=8091
  remaining activity at 1.25 µM: 97.4%
[2]; Well no.=8091
  remaining activity at 3.75 µM: 102%

## COc1ccc(CCC(=O)Nc2nc3ccc(Cl)cc3s2)cc1OC [KY02111]
[1]; Well no.=4782
  remaining activity at 1.25 µM: 105%
[2]; Well no.=4782
  remaining activity at 3.75 µM: 98.2%

## COc1ccc2c(c1)C(c1ccc(F)cc1)=C(CN1CCCC1)CO2 [AX-024 hydrochloride]
[1]; Well no.=6930
  remaining activity at 1.25 µM: 97%
[2]; Well no.=6930
  remaining activity at 3.75 µM: 95.2%

## O=c1cc(N2CCOCC2)oc2c1ccc1ccccc12 [NU 7026 - 2-(4-Morpholinyl)-4H-naphthol[1,2-b]pyran-4-one]
[1]; Well no.=2630
  remaining activity at 1.25 µM: 92.2%
[2]; Well no.=2630
  remaining activity at 3.75 µM: 92.6%

## CC(CCC(=O)O)CC(=O)O (stereo not shown) [3-Methyladipic acid]
[1]; Well no.=6533
  remaining activity at 1.25 µM: 107%
[2]; Well no.=6533
  remaining activity at 3.75 µM: 98.2%

## Nc1ccc(/C=C/c2cccc(C(=O)O)n2)cc1 [CB-7921220]
[1]; Well no.=7759
  remaining activity at 1.25 µM: 103%
[2]; Well no.=7759
  remaining activity at 3.75 µM: 95.7%

## O=C(O)C1CCNCC1 [Isonipecotic acid]
[1]; Well no.=1067
  remaining activity at 1.25 µM: 92.8%
[2]; Well no.=1067
  remaining activity at 3.75 µM: 96.7%

## CN(C)CCc1c[nH]c2ccc(Cn3cncn3)cc12 [Rizatriptan (benzoate)]
[1]; Well no.=6174
  remaining activity at 1.25 µM: 93.4%
[2]; Well no.=6174
  remaining activity at 3.75 µM: 89.9%

## O=C1C(=O)N(Cc2ccc(Cl)c(Cl)c2)c2ccccc21 [MDK83190]
[1]; Well no.=6404
  remaining activity at 1.25 µM: 101%
[1]; Well no.=8130
  remaining activity at 1.25 µM: 94.6%
[2]; Well no.=6404
  remaining activity at 3.75 µM: 99.4%
[2]; Well no.=8130
  remaining activity at 3.75 µM: 90%

## NC(=O)NO [Hydroxyurea]
[1]; Well no.=566
  remaining activity at 1.25 µM: 97.4%
[1]; Well no.=6544
  remaining activity at 1.25 µM: 103%
[2]; Well no.=566
  remaining activity at 3.75 µM: 96.1%
[2]; Well no.=6544
  remaining activity at 3.75 µM: 100%

## COc1ccc(Cl)cc1C(=O)NCCc1ccc(S(=O)(=O)NC(=O)NC2CCCCC2)cc1 [Glyburide]
[1]; Well no.=1806
  remaining activity at 1.25 µM: 96.5%
[2]; Well no.=1806
  remaining activity at 3.75 µM: 97.3%

## NC(CO)C(=O)NNCc1ccc(O)c(O)c1O (stereo not shown) [Benserazide]
[1]; Well no.=1903
  remaining activity at 1.25 µM: 97.8%
[2]; Well no.=1903
  remaining activity at 3.75 µM: 97.7%

## N#C/C(=C\c1ccc(O)c(O)c1)C(=O)NCc1ccccc1 [AG 490 - (E)-2-Cyano-3-(3,4-dihydrophenyl)-N-(phenylmethyl)-2-propenamide]
[1]; Well no.=2332
  remaining activity at 1.25 µM: 95%
[2]; Well no.=2332
  remaining activity at 3.75 µM: 93.5%

## CCN(CC)CCCC(C)Nc1nc(C)cc(Nc2ccc3nc(C)cc(N)c3c2)n1 (stereo not shown) [NSC 23766]
[1]; Well no.=4798
  remaining activity at 1.25 µM: 103%
[2]; Well no.=4798
  remaining activity at 3.75 µM: 101%

## CC(C)N(CCC(C(N)=O)(c1ccccc1)c1ccccn1)C(C)C (stereo not shown) [Disopyramide]
[1]; Well no.=390
  remaining activity at 1.25 µM: 101%
[2]; Well no.=390
  remaining activity at 3.75 µM: 101%

## COc1ccccc1N1CCN(CCCCNC(=O)c2ccc3ccccc3c2)CC1 [BP 897]
[1]; Well no.=35
  remaining activity at 1.25 µM: 95.8%
[2]; Well no.=35
  remaining activity at 3.75 µM: 93.4%

## C[C@]12CC[C@@H]3c4ccc(O)cc4CC[C@H]3[C@@H]1CCC2=O [Estrone]
[1]; Well no.=559
  remaining activity at 1.25 µM: 101%
[1]; Well no.=2038
  remaining activity at 1.25 µM: 103%
[1]; Well no.=6445
  remaining activity at 1.25 µM: 102%
[2]; Well no.=559
  remaining activity at 3.75 µM: 98.9%
[2]; Well no.=2038
  remaining activity at 3.75 µM: 104%
[2]; Well no.=6445
  remaining activity at 3.75 µM: 96%

## CN[C@@H](C)C(=O)N[C@H]1CCCC[C@H]2CC[C@@H](C(=O)N[C@@H](c3ccccc3)c3cn(CCCCc4ccc(CCCCn5cc([C@@H](NC(=O)[C@@H]6CC[C@@H]7CCCC[C@H](NC(=O)[C@H](C)NC)C(=O)N76)c6ccccc6)nn5)cc4)nn3)N2C1=O [SM-164 Hydrochloride]
[1]; Well no.=7030
  remaining activity at 1.25 µM: 105%
[1]; Well no.=8556
  remaining activity at 1.25 µM: 104%
[2]; Well no.=7030
  remaining activity at 3.75 µM: 102%
[2]; Well no.=8556
  remaining activity at 3.75 µM: 99.5%

## COc1cccc(-c2cc(F)ccc2C2Cc3nc(N)nc(C)c3C(=O)N2)n1 (stereo not shown) [HSP990 (NVP-HSP990)]
[1]; Well no.=8934
  remaining activity at 1.25 µM: 93.5%
[2]; Well no.=8934
  remaining activity at 3.75 µM: 100%

## O=C(O)c1cc(N(Cc2ccccc2O)Cc2ccccc2O)ccc1O [Lavendustin B]
[1]; Well no.=3807
  remaining activity at 1.25 µM: 95.8%
[2]; Well no.=3807
  remaining activity at 3.75 µM: 98%

## Cc1ccc2nc(N)[nH]c(=O)c2c1Sc1ccncc1 [Nolatrexed dihydrochloride]
[1]; Well no.=6980
  remaining activity at 1.25 µM: 103%
[2]; Well no.=6980
  remaining activity at 3.75 µM: 100%

## CC(C)CN(C[C@@H](O)[C@H](Cc1ccccc1)NC(=O)O[C@H]1CO[C@H]2OCC[C@H]21)S(=O)(=O)c1ccc(N)cc1 [Darunavir (Ethanolate)]
[1]; Well no.=8504
  remaining activity at 1.25 µM: 98.9%
[2]; Well no.=8504
  remaining activity at 3.75 µM: 90.4%

## C[C@H](N[C@@H](CCc1ccccc1)C(=O)O)C(=O)N1CCC[C@H]1C(=O)O [Enalaprilat (dihydrate)]
[1]; Well no.=7842
  remaining activity at 1.25 µM: 94.7%
[2]; Well no.=7842
  remaining activity at 3.75 µM: 97.1%

## Nc1cc(N2CCCCC2)nc(N)[n+]1[O-] [Minoxidil]
[1]; Well no.=1070
  remaining activity at 1.25 µM: 93.8%
[1]; Well no.=1808
  remaining activity at 1.25 µM: 89.4%
[2]; Well no.=1070
  remaining activity at 3.75 µM: 96.2%
[2]; Well no.=1808
  remaining activity at 3.75 µM: 90.5%

## Oc1ccc(O)cc1 [Hydroquinone]
[1]; Well no.=472
  remaining activity at 1.25 µM: 102%
[1]; Well no.=3849
  remaining activity at 1.25 µM: 105%
[2]; Well no.=472
  remaining activity at 3.75 µM: 99.1%
[2]; Well no.=3849
  remaining activity at 3.75 µM: 106%
